# Assay results: patent publication US20260137807A1, “COMPOSITIONS AND METHODS FOR DELIVERING A MACROMOLECULE TO A CELL” (AstraZeneca AB, priority 2022, published 2026)
# Tests used:
# [1] = test system: Luc705 pre-mRNA in HeLa Luc705 cells; assay: RT-PCR of corrected luciferase mRNA; assay type: cell-based; conditions: with SSO, FIG. 9
# Procedure: (§1) The percentage of corrected luciferase mRNA was quantified using a previously validated RT-PCR protocol. (Saher et al. (2019) Pharmaceutics. 11(12):666) Total RNA was extracted from HeLa Luc705 and Huh7 Luc705 cells using TRI Reagent (Sigma-Aldrich) according to the manufacturer's instructions.
# (§2) For RT-PCR reactions using ONE STEP RT-PCR kit (QIAGEN), three nanograms of isolated RNA were utilized. The total reaction volume was 20 μL and the primer sequences used were:
# (§3) The program for the RT-PCR was as follows: 55° C., 35 min, then 95° C., 15 min, for the reverse transcription step, directly followed by the PCR (94° C., 30 s, then 55° C., 30 s, then 72° C., 30 s) for 30 cycles and the final extension 72° C., 10 min. The PCR products were analyzed using a 1% agarose gel in 0.5× TAE buffer and visualized by SYBR Gold (Invitrogen, Molecular products) staining.
# (§4) Versadoc imaging system with a cooled CCD camera (BioRad, Hercules, CA, USA) was used for the analysis of gels. Band intensities were analyzed with the Quantity One software (BioRad, Hercules, CA, USA). The percentage of correction was calculated using this equation (Band intensity of corrected RNA*100/(Band intensity of corrected RNA+Band intensity of uncorrected RNA).
# [2] = test system: Luc705 pre-mRNA in Huh7 Luc705 cells; assay: RT-PCR of corrected luciferase mRNA; assay type: cell-based; conditions: with SSO, Huh7, FIG. 9
# Procedure: as §1, §2, §3, §4
# [3] = test system: different cell lines (mCherry-GAL9); assay: mCherry-GAL9 response between different cell lines; assay type: cell-based; conditions: 0.31 to 10 μM, 2 hours post-dosing, FIG. 41 and 48
# Procedure: All of the stable cell lines generated from HeLa and Huh7 cells were maintained and cultivated in Dulbecco's modified Eagle's medium (DMEM) with high glucose with GlutaMAX (Gibco, cat. no. 31966-021), 10% fetal bovine serum (gibco, cat. no. 10270-106), and 1% penicillin-streptomycin (gibco, cat. no. 15140-122) at 37° C., 5% CO2 in 95% humidity in T75 TC flask (Sarstedt, 83.3911.002). The cells were detached (trypsin 0.25% EDTA, 10 min) and passaged twice a week. HEK293 and HeLa, HepG2, Huh7 and U2OS mCherry-GAL9 cell lines were maintained in DMEM, NCI-H358 mCherry-GAL9 were maintained in RPMI (Gibco: 32430-027) and SH-SY5Y mCherry-GAL9 were maintained in DMEM/F12 (Gibco: 32430-027). All growth media was supplemented with 10% FBS and 1 μg/ml Puromycin (Gibco: A11138-03) to maintain reporter expression. All cells were routinely tested and mycoplasma negative.
# HeLa and Huh7 cells were further submitted to the mCherry-GAL9-recruitment analysis with treatment with select compounds and observed for endosomal rupture at various time points (1 hour, 2 hours, and 16 hours). GAL9 response results at different doses (1.25-5 μM) of the selected compounds are shown in FIG. 33 (Huh7 cells) and FIG. 34 (HeLa cells). […] FIG. 40 further provides additional results comparing time (0.25 to 4 hours), dose of select compounds (0.31 to 10 μM) and GAL9 response in Huh7 cells. […]
# [4] = test system: T-47D cells; assay: Co-delivery of Cre recombinase, in vitro editing GFP reporter; assay type: cell-based; conditions: for editing: 50 nM Cre
# Excerpt: Cre recombinase was co-administered with Compound 4 to assess improvement in editing efficiency in an in vitro reporter system in which edited cells express GFP. Total cell counts are shown as unfilled bars (FIG. 43A, left panel); viable cells are shown in light gray shaded bars (FIG. 43A, middle panel); edited cell counts are shown in green shaded bars, and edited cell percentage is shown as the dotted line (FIG. 43A, right panel).
# The media change increased cell viability, as shown by the difference between the left and right panels of FIGS. 43B and 43C. […] Greater than 80% editing was observed when Cre protein was co-administered with 2 μM or 3 μM Compound 4 in the media changed condition, and 3 μM Compound 4 in the media unchanged condition.
# [5] = test system: Floxed mice; assay: Co-delivery of Cre recombinase, in vivo editing tdTomato reporter, ICV
# Procedure: Cre recombinase ([…] […] […] […] […] […] […] (SEQ ID NO: 10)) was co-administered with Compound 4 to assess improvement in editing efficiency in an in vivo reporter system, in which edited mice express tdTomato. Floxed mice were administered via intracerebroventricular injection (ICV) with 60 pmol Cre recombinase and varying concentrations (2.5, 5.0, 7.5, 10.0, 12.5, and 15 μM) of Compound 4 as calculated in 40 μL CSF volume. Brain segments were analyzed by immunofluorescent staining 7 days post-treatment.
# [6] = test system: anti-CD3/28 stimulated T cells; assay: Co-delivery of Cre recombinase, ex vivo editing of T cells; assay type: cell-based, mice
# Procedure: The combination of Cre recombinase with Compound 4 was also tested in ex vivo editing of anti-CD3/28 stimulated T cells. […], then treated with 2.5 μM of Compound 4 with varying concentrations of Cre recombinase (50, 100, 200, 500 and 1000 nM), either on a U-plate with no mixing (T1) or mixed in a tube shaker during treatment (T2).
# [7] = test system: HEK cells; assay: Co-delivery of ABE8e base editor, GFP reporter; assay type: cell-based; conditions: 50 nM ABE8e, Compound 4 concentrations above 2.5 μM, FIG. 46B
# Procedure: The ABE8e base editor comprising SpCas9 D10A nickase and a modified TadA adenosine deaminase (Richter et al., Nature Biotechnol. 38:883-891 (2020)) was co-administered with Compound 4 to assess improvement in editing efficiency in an in vitro reporter system in which edited cells express GFP. […] The bar shading and lines showing total cell counts, viable cells, and edited cells are the same as in FIG. 43A.
# HEK cells were co-administered with a fixed concentration (50 nM) of ABE8e and varying concentrations of AZ3327 (Compound 4). The results in FIG. 46B show greater than 90% editing efficiency at Compound 4 concentrations of above 2.5 μM.
# HEK and N2a cells were co-administered with a fixed concentration (2.5 μM) of Compound 4 and varying concentrations of ABE8e.
# [8] = non-activated T cells, FIG. 45A
structure (smiles),measurement,setting,value
COc1nn(C2CCNCC2)cc1Nc1ncc(Cl)c(-n2ccc3c(C#N)cccc32)n1 [Compound 2],levels of splice-switching (functional mRNA),[1],greater levels of splice-switching than transfection with SSO using Lipofectamine 2000
same,levels of splice-switching (functional mRNA),[2],greater levels of splice-switching than transfection with SSO using Lipofectamine 2000
COc1nn(C2CCNCC2)cc1Nc1ncc(F)c(-n2ccc3c(C#N)cccc32)n1 [Compound 4],GAL9 response between different cell lines,[3],GAL9 responses across multiple cell lines of diverse background origins
same,editing efficiency,"[4]; 50 nM Cre protein, 0, 1, 2 or 3 μM compound, FIG. 43B",improved editing efficiency in T-47D cells in a dose-dependent manner
same,editing,"[4]; 2 μM compound, media changed after 2 hours",Greater than 80%
same,editing,"[4]; 3 μM compound, media changed after 2 hours",Greater than 80%
same,editing,"[4]; 3 μM compound, media unchanged",Greater than 80%
same,in vivo editing in the brain (tdTomato staining),"[5]; ICV, 60 pmol Cre, 2.5-15 μM compound, 7 days post-treatment",enhanced by Compound 4 in a dose-dependent manner
same,staining in the lumbar sections of the spinal cord,"[5]; ICV, 60 pmol Cre, FIG. 44B",obvious staining
same,location of editing,"[5]; dissection segments, FIG. 44C",primarily at the injection site
same,editing efficiency,"[6]; activated T cells, 2.5 μM compound, FIG. 45C",greater than 90%
same,proliferative capacity,"[6]; activated T cells, FIG. 45C",without affecting proliferative capacity
same,editing,[6]; [8],highly edited
same,proliferation rate,[6]; [8],compromised
same,editing efficiency,[7],greater than 90%
